Changes are numbered by the printed parent chain. A value given as a limit tells only on which side of the number the result lay.

The test system of one experiment is GlyT1 WT. The arrangement: method as in earlier work. The note with it: previously published; cited from earlier work.
The next experiment concerns the target T1, GlyT2 WT (Homo sapiens, UniProt Q9Y345).
T1 sequence (Q9Y345 1-797): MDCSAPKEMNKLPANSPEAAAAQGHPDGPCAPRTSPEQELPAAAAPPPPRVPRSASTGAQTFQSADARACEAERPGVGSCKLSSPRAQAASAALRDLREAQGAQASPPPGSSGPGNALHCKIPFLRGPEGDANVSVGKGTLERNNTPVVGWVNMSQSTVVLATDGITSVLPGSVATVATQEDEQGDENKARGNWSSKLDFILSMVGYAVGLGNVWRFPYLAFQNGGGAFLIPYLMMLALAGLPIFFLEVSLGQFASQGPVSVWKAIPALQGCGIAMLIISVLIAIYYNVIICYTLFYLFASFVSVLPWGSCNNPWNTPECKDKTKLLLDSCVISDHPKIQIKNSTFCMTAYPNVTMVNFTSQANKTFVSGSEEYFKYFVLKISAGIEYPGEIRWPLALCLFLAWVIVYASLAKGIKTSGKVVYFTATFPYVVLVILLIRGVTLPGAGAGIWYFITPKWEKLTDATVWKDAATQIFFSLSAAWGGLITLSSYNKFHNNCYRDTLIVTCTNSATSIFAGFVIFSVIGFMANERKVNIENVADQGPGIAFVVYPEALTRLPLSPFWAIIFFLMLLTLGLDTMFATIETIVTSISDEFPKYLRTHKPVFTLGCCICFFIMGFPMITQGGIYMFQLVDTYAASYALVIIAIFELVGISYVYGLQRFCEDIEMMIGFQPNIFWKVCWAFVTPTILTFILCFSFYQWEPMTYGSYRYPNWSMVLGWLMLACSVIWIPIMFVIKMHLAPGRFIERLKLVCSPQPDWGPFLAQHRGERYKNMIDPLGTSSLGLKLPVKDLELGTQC
Set-up: expressed in transfected cells; host or cells: Xenopus laevis oocytes (cRNA injection). Particulars: WT GlyT2, previously published, cited from earlier work; for IC50: mean (95% CI); for GlyT2 % max. inhibition: mean ± SEM.

A further experiment deals with T2, GlyT2 V432A mutant (Homo sapiens, UniProt Q9Y345, V432A).
T2 construct: expressed in transfected cells; host or cells: Xenopus laevis oocytes (cRNA injection)
T2 sequence (Q9Y345 1-797 V432A): T1 sequence (Q9Y345 1-797) with V432A
The experiment is described as follows: Glycine transport currents, two electrode voltage clamp, oocytes expressing GlyT2 V432A. The class given is cell-based. Particulars: GlyT2 V432A; for IC50: greater than maximum concentration applied (footnote a). The procedure:
(§1) Glycine was first applied to establish maximal transport current.
(§2) Compounds were tested for inhibition of glycine transport on Xenopus laevis oocytes expressing mutant GlyT1 and GlyT2 transporters. n values are in brackets, with measurements taken from at least 2 batches of oocytes.
On the technique in general: In two-electrode clamp one electrode senses voltage and the other passes current.

For another experiment, the target named is T3, GlyT2 F428A mutant (Homo sapiens, UniProt Q9Y345, F428A).
T3 construct: expressed in transfected cells; host or cells: Xenopus laevis oocytes (cRNA injection)
T3 sequence (Q9Y345 1-797 F428A): T1 sequence (Q9Y345 1-797) with F428A
Description: Glycine transport currents, two electrode voltage clamp, oocytes expressing GlyT2 F428A. It counts as cell-based. Particulars: GlyT2 F428A; mean ± SEM. The procedure:
as §1, §2

In general, IC50 refers to the concentration at which inhibition is half-maximal. As to `CCC=CCCCCCCCCCCCC(=O)NCC(=O)O` [C16 ω3 Glycine], the IC50 is more than 10 µM in the experiment on GlyT1 WT, 0.81 µM on GlyT2 WT and more than 10 µM against GlyT2 V432A mutant. Besides, the “GlyT2 % max. inhibition” value at GlyT2 WT is recorded as 65.3 ± 1.9%. Moreover, the “% Max. inhibition” value at GlyT2 V432A mutant (mean ± SEM) is recorded as 1.0 ± 3.0 (p=0.0193) %.

Turning to `CCCCCC/C=C\CCCCCCCC(=O)NCC(=O)O` [C16 ω7 Glycine], the results for the IC50 with GlyT1 WT, on GlyT2 WT and at GlyT2 V432A mutant were more than 10 µM, 1.5 µM and more than 10 µM, respectively. In addition, the “% Max. inhibition” value on GlyT2 F428A mutant is on record as 56.5%. Further, the “GlyT2 % max. inhibition” value at GlyT2 WT is given as 92.5 ± 1.6%. Also, at GlyT2 V432A mutant (footnote b), the “% Max. inhibition (% inhibition at the highest concentration of inhibitor used)” value is reported as 44.2 ± 6.3^b (p=0.0009) %.

The values are drawn from paper PMC6797481, “Identification of an allosteric binding site on the human glycine transporter, GlyT2, for bioactive lipid analgesics” (eLife, 2019).
